Like-named read-outs stand apart in the source and are kept apart here. Bounds are passed on as bounds.

The source of these data is patent US20120214802A1, “PYRROLIDINE COMPOUNDS WHICH INHIBIT BETA-SECRETASE ACTIVITY AND METHODS OF USE THEREOF” (priority 2009, published 2012).

Experiment [1] addresses memapsin 2 (Homo sapiens, UniProt P56817). The experiment in a line: Inhibition of memapsin 2 beta-secretase activity (fluorogenic substrate FS-2). The experiment is classed as biochemical. Conditions: pH 4, 37° C., read-out: M2 Ki. The method in brief:
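Memapsin 2 pre-incubated with compound for 20 min at pH 4, 37° C. Reaction started with fluorogenic substrate FS-2, […], derived from Swedish-variant APP beta-secretase site; inhibition measured from fluorescence.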

The target in experiment [2] is T1, memapsin 1 (Homo sapiens, UniProt Q9Y5Z0).
T1 sequence (Q9Y5Z0 63-518): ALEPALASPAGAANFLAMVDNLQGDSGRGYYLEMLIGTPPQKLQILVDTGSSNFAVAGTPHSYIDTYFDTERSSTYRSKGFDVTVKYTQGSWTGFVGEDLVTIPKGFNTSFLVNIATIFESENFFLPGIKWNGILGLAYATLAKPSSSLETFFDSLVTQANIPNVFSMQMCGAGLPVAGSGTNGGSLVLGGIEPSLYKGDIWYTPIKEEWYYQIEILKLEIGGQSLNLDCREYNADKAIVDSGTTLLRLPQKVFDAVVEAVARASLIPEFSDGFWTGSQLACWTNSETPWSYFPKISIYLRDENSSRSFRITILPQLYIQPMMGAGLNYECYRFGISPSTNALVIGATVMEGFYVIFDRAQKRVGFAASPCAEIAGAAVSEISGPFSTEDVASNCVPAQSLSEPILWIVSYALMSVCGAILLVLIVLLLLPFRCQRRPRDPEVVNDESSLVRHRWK
The experiment in a line: Inhibition of memapsin 1 beta-secretase activity (MALDI-TOF, substrate ELDLAVEFWHDR). The experiment is classed as biochemical. Conditions: read-out: M1 Ki. The procedure:
[The source words this procedure for another target and reports this target under the same test.] (§1) A substrate peptide NH3-ELDLAVEFWHDR-CO2 (SEQ ID NO.: 1) was dissolved at 2 mg/mL in 10% glacial acetic acid and diluted into 0.009M NaOH to obtain μM concentration at pH 4.1. After equilibration at 37 degrees C., the reactions were initiated by the addition of an aliquot of memapsin 2. Aliquots were removed at time intervals, and combined with an equal volume of MALDI-TOF matrix (α-hydroxycinnamic acid in acetone, 20 mg/mL) and immediately spotted in duplicate onto a stainless-steel MALDI sample plate. MALDI-TOF mass spectrometry was performed on a PE Biosystems Voyager DE. The instrument was operated at 25,000 accelerating volts in positive mode with a 150 ns delay. Ions with a mass-to-charge ratio (m/z) were detected in the range of 650-2000 atomic mass units. Data were analyzed by the Voyager Data Explorer module to obtain ion intensity data for mass species of substrates and corresponding products in a given mixture. Relative product formation was calculated as the ratio of signal intensity of the product to the sum of signal intensities of both product and the corresponding substrate. Relative product formed per unit time was obtained from non-linear regression analysis of the data representing the initial 15% formation of product using the model:
where k was the relative hydrolytic rate constant and T was time in seconds. […]

In experiment [3] the target is T2, memapsin 2 (Cricetulus griseus, UniProt G3IAK4).
T2 construct: endogenous in cells; host or cells: Chinese hamster ovary cells over-expressing human APP695 (London + Swedish)
The experiment in a line: Cellular Aβ IC50 determination (Aβ40 sandwich ELISA). The experiment is classed as cell-based, Chinese hamster. Conditions: CHO cells over-expressing human APP695 with London and Swedish mutations, 24 h, read-out: M2 IC50. Put shortly:
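CHO cells overexpressing human APP695 (London and Swedish mutations) treated 48 h post-seeding with serially diluted compounds (top near 4 μM, 0.4% DMSO), 24 h at 37° C, 5% CO2. Medium Aβ40 measured by sandwich ELISA; levels relative to control fitted to 4-parameter IC50 model.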
For orientation: ELISA stands for enzyme-linked immunosorbent assay.

Experiment [4] concerns the target cathepsin D (Homo sapiens, UniProt P07339). Put plainly: Inhibition of cathepsin D activity (MALDI-TOF, substrate ELDLAVEFWHDR). The experiment is classed as biochemical. The procedure:
[The source words this procedure for another target and reports this target under the same test.] as §1
where k was the relative hydrolytic rate constant and T was time in seconds. Initial rates were expressed relative to uninhibited controls and fit to a tight-binding model of competitive inhibition as above.

Chain of cathepsin D (P07339 65-412, species assumed): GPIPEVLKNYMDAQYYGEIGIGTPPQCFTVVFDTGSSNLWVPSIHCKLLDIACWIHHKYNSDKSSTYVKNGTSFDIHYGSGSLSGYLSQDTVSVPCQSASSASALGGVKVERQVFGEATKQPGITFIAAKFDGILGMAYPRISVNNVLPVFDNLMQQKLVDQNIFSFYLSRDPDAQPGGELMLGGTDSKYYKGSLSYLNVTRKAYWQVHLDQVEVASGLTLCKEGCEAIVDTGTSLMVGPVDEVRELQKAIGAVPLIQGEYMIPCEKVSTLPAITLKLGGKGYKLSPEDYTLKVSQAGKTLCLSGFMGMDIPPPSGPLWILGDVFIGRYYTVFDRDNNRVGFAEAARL
T2 sequence (G3IAK4 22-501): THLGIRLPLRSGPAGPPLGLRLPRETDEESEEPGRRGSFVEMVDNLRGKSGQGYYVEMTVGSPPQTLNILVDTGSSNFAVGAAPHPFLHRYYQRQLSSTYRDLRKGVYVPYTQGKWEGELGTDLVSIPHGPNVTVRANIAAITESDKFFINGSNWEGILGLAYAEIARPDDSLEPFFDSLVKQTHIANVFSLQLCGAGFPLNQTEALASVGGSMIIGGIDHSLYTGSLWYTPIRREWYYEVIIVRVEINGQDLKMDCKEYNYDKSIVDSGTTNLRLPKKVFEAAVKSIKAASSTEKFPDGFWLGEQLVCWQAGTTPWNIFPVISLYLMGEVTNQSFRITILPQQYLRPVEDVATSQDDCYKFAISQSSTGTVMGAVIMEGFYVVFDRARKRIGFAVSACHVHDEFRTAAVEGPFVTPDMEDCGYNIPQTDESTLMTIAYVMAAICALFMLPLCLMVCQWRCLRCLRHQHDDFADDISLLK
Chain of memapsin 2 (Homo sapiens, UniProt P56817) (P56817 46-501): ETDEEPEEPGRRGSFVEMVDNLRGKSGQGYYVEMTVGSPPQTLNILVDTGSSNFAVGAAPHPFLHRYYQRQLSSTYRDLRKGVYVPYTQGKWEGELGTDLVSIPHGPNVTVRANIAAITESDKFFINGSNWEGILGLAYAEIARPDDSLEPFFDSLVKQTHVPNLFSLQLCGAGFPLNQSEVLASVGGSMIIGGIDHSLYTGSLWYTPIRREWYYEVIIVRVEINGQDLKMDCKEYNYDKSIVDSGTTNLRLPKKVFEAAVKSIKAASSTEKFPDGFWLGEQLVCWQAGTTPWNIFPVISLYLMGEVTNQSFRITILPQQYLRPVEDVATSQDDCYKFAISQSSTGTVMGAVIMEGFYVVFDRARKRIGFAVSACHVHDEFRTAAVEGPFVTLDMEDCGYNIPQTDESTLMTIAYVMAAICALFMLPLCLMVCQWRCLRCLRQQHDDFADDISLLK

As for `Cc1csc([C@H]2CCCN2C(=O)c2cc(C(=O)N[C@@H](Cc3ccccc3)[C@H](O)[C@H]3C[C@@H](OCc4ccccc4)CN3)cc(-n3cccc3)c2)n1` [1-25, N-((1R,2S)-1-((2R,4R)-4-(benzyloxy)pyrrolidin-2-yl)-1-hydroxy-3-phenylpropan-2-yl)-3-((R)-2-(4-methylthiazol-2-yl)pyrrolidine-1-carbonyl)-5-(1H-pyrrol-1-yl)benzamide], the Ki in experiment [1] was < 250 nM; in experiment [2], 624 nM; in experiment [2] (substrate peptide ELDLAVEFWHDR, pH 4.1, 37 degrees C), > 500 nM; in experiment [4] (read-out: CathD Ki), 48.8 nM; in experiment [4] (substrate peptide ELDLAVEFWHDR, pH 4.1, 37 degrees C, read-out: CD Ki) it was < 300 nM. The IC50 in experiment [3] is < 500 nM.

By Ki is commonly meant a dissociation constant, usually derived from enzyme kinetics or from competition with a known ligand. As usually defined, the IC50 is the concentration needed to halve the response being measured.
